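Compound exposure: 48 hours, 5 concentrations, 96-well plates. At the GI50, growth is halved.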 Activity calls are given as the source filed them. Cut-off read from the data, not from the text of the source: active = GI50 up to about 1.1 µM and inactive = higher.
What was measured:
Test in all cases: DTP human tumour cell line panel, 48 h
A498 = test system: A498
ACHN = test system: ACHN
EKVX = test system: EKVX
HCC 2998 = test system: HCC 2998
HCT-116 = test system: HCT-116
HL-60 = test system: HL-60
HOP-92 = test system: HOP-92
LOX IMVI = test system: LOX IMVI
MOLT-4 = test system: MOLT-4
Malme-3M = test system: Malme-3M
NCI-H460 = test system: NCI-H460
OVCAR-3 = test system: OVCAR-3
OVCAR-4 = test system: OVCAR-4
OVCAR-5 = test system: OVCAR-5
OVCAR-8 = test system: OVCAR-8
SK-MEL-2 = test system: SK-MEL-2
SK-MEL-5 = test system: SK-MEL-5
SN12C = test system: SN12C
UACC-62 = test system: UACC-62
UO-31 = test system: UO-31

Measured: GI50

COc1c2c(nc3ccccc13)-c1cc(C(CC(=O)OC(C)(C)C)C(=O)OC(C)C)c(CO)c(=O)n1C2 (stereo not given)
inactive: A498 57.3 µM | ACHN 21.9 µM | EKVX > 100 µM | HCC 2998 > 100 µM | HCT-116 37 µM | HL-60 > 25.2 µM | HOP-92 40 µM | LOX IMVI 32.4 µM | MOLT-4 3.67 µM | Malme-3M > 100 µM | NCI-H460 10.4 µM | OVCAR-3 > 100 µM | OVCAR-4 > 70.5 µM | OVCAR-5 98.6 µM | OVCAR-8 71.1 µM | SK-MEL-2 > 100 µM | SK-MEL-5 43.5 µM | SN12C 45.8 µM | UACC-62 17.8 µM | UO-31 > 36.7 µM

CC1=NOC(=O)/C1=C/c1ccc([N+](=O)[O-])cc1
inactive: A498 > 100 µM | ACHN > 100 µM | EKVX > 100 µM | HCC 2998 > 100 µM | HCT-116 > 100 µM | HL-60 > 100 µM | HOP-92 > 100 µM | LOX IMVI > 100 µM | MOLT-4 > 100 µM | Malme-3M > 100 µM | NCI-H460 > 100 µM | OVCAR-3 > 100 µM | OVCAR-4 > 100 µM | OVCAR-5 > 100 µM | OVCAR-8 > 100 µM | SK-MEL-2 > 100 µM | SK-MEL-5 > 100 µM | SN12C > 100 µM | UACC-62 > 100 µM | UO-31 > 100 µM

Cc1cccc(N(CCC#N)S(=O)(=O)c2ccccc2)c1
inactive: A498 > 100 µM | ACHN > 100 µM | EKVX > 100 µM | HCC 2998 > 100 µM | HCT-116 > 100 µM | HL-60 > 100 µM | HOP-92 > 100 µM | LOX IMVI > 100 µM | MOLT-4 > 100 µM | Malme-3M > 100 µM | NCI-H460 > 100 µM | OVCAR-3 > 100 µM | OVCAR-4 > 100 µM | OVCAR-5 > 100 µM | OVCAR-8 > 100 µM | SK-MEL-2 > 100 µM | SK-MEL-5 69 µM | SN12C > 100 µM | UACC-62 > 100 µM | UO-31 97.7 µM
